One assay deals with T1, wildtype HIV-1 protease (Human immunodeficiency virus type 1 group M subtype B, UniProt P04585).
T1 construct: the wildtype HIV-1 protease (which was expressed in Escherichia coli); made in house; host or cells: Escherichia coli
Briefly: Assay for inhibition of microbial expressed HIV protease (Pepcleav). In kind it is biochemical. Particulars: wild type HIV-1 protease expressed in E. coli, peptide substrate, pH 5.5; mean of at least two independent experiments; read-out: Pepcleav. A digest of the protocol:
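Cleavage of 400 μM peptide substrate Val-Ser-Gln-Asn-(βnaphthyl)Ala-Pro-Ile-Val by 20 pM wild-type enzyme (E. coli-expressed) ran 1 h at 30 °C after 30 min inhibitor preincubation, pH 5.5 acetate buffer. Inhibition derived from product peak area by C18 LC with multiple-reaction-monitoring MS after formic acid quench.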

For a further assay, the system named is HIV-1 (H9IIIB strain). The assay can be described thus: Antiviral acute infection assay in cell culture (Spread). Particulars: Human immunodeficiency virus 1, T-lymphoid, HIV-1 H9IIIB infection of MT-4 human T-lymphoid cells in 10% FBS; mean of at least two independent experiments. In kind it is cell-based. An excerpt: Antiviral Assays in Cell Culture (“Spread”)
Acute Infection Assay (“Spread”) data were generated using HIV-1 (H9IIIB strain) infection of MT-4 human T-lymphoid cells in 10% FBS, and according to the methods disclosed by J. P. Vacca et al, “L-735,524: An orally bioavailable human immunodeficiency virus type 1 protease inhibitor,” Proc. Natl. Acad. Sci. USA, Vol. 91, pp. 4096-4100 (April 1994).

The results in this text go back to patent US9315475B2 (MERCK SHARP & DOHME CORP., priority 2011, dated 2016).

Each structure is given as a SMILES string.

In general, EC50 refers to the concentration needed to bring the measured effect to its halfway point. Low readings indicate a more potent agent, high ones a less potent agent.

Take `N[C@H](C(=O)Nc1cccc(F)c1CC[C@@H]1CN[C@H](COC(=O)NCC(F)(F)F)CO1)[C@H](c1ccc(F)cc1)c1ccc(Cl)cc1` [Example 273, (βR)-β-(4-chlorophenyl)-4-fluoro-N-(3-fluoro-2-{2-[(2R,5S)-5-({[(2,2,2-trifluoroethyl)carbamoyl]oxy}methyl)morpholin-2-yl]ethyl}phenyl)-L-phenylalaninamide]: on wildtype HIV-1 protease, the IC50 stood at 1.4 nM. The compound further yielded an EC50 with HIV-1 (H9IIIB strain) of 20 nM.
The corresponding values for `N[C@H](C(=O)Nc1cccc(F)c1CC[C@@H]1CN[C@H](COC(=O)NCC(F)(F)F)CO1)[C@@H](c1ccc(Cl)cc1)c1cccc(F)c1` [Example 274, (βS)-β-(4-chlorophenyl)-3-fluoro-N-(3-fluoro-2-{2-[(2R,5S)-5-({[(2,2,2-trifluoroethyl)carbamoyl]oxy}methyl)morpholin-2-yl]ethyl}phenyl)-L-phenylalaninamide] are 1.3 nM and 11 nM.
For `N[C@H](C(=O)Nc1cncc(F)c1CC[C@@H]1CN[C@H](COC(=O)NCC(F)(F)F)CO1)[C@H](c1ccc(F)cc1)c1ccc(Br)cc1` [Example 275, (βR)-4-bromo-β-(4-fluorophenyl)-N-(5-fluoro-4-{2-[(2R,5S)-5-({[(2,2,2-trifluoroethyl)carbamoyl]oxy}methyl)morpholin-2-yl]ethyl}pyridin-3-yl)-L-phenylalaninamide] the same measures were 0.4 nM and 25 nM.
Regarding `N[C@H](C(=O)Nc1cncc(F)c1CC[C@@H]1CN[C@H](COC(=O)NC(CC(F)(F)F)c2ccc(F)cc2)CO1)C(c1ccc(F)cc1)c1ccc(F)cc1` (stereo partly drawn) [Example 276, 4-fluoro-β-(4-fluorophenyl)-N-[5-fluoro-4-(2-{(2R,5S)-5-[({[3,3,3-trifluoro-1-(4-fluorophenyl)propyl]carbamoyl}oxy)methyl]morpholin-2-yl}ethyl)pyridin-3-yl]-L-phenylalaninamide], the IC50 at wildtype HIV-1 protease came out at 0.2 nM. Further, in the assay with HIV-1 (H9IIIB strain), the response was half-maximal at 28 nM (EC50).
The corresponding values for `CC(C)OC(=O)N[C@H](C(=O)Nc1cncc(F)c1CC[C@@H]1CN[C@H](COC(=O)NCC(F)(F)F)CO1)C(c1ccc(F)cc1)c1ccc(F)cc1` [Example 277, 4-fluoro-β-(4-fluorophenyl)-N-(5-fluoro-4-{2-[(2R,5S)-5-({[(2,2,2-trifluoroethyl)carbamoyl]oxy}methyl)morpholin-2-yl]ethyl}pyridin-3-yl)-Nα-[(1-methylethoxy)carbonyl]-L-phenylalaninamide] are 3.2 nM and 23 nM.
For `O=C(NCC(F)(F)F)OC[C@@H]1CO[C@H](CCc2c(F)cncc2NC(=O)[C@@H](NC(=O)OC2CCCC2)C(c2ccc(F)cc2)c2ccc(F)cc2)CN1` [Example 278, Nα-[(cyclopentyloxy)carbonyl]-4-fluoro-β-(4-fluorophenyl)-N-(5-fluoro-4-{2-[(2R,5S)-5-({[(2,2,2-trifluoroethyl)carbamoyl]oxy}methyl)morpholin-2-yl]ethyl}pyridin-3-yl)-L-phenylalaninamide] the same measures were 3.2 nM and 38 nM.
The corresponding values for `O=C(NCC(F)(F)F)OC[C@@H]1CO[C@H](CCc2c(F)cncc2NC(=O)[C@@H](NC(=O)OCCF)C(c2ccc(F)cc2)c2ccc(F)cc2)CN1` [Example 279, 4-fluoro-Nα-[(2-fluoroethoxy)carbonyl]-β-(4-fluorophenyl)-N-(5-fluoro-4-{2-[(2R,5S)-5-({[(2,2,2-trifluoroethyl)carbamoyl]oxy}methyl)morpholin-2-yl]ethyl}pyridin-3-yl)-L-phenylalaninamide] are 1.9 nM and 57 nM.
Consider `COC(=O)N[C@H](C(=O)Nc1cncc(F)c1CC[C@@H]1CN[C@H](COC(=O)NCC(F)(F)F)CO1)C(c1cccc(F)c1)c1cccc(F)c1` [Example 280, 3-fluoro-β-(3-fluorophenyl)-N-(5-fluoro-4-{2-[(2R,5S)-5-({[(2,2,2-trifluoroethyl)carbamoyl]oxy}methyl)morpholin-2-yl]ethyl}pyridin-3-yl)-Nα-(methoxycarbonyl)-L-phenylalaninamide], for which the IC50 at wildtype HIV-1 protease came to 1 nM. Also, the concentration giving a half-maximal response (EC50) in the assay on HIV-1 (H9IIIB strain) was determined as 15 nM.
`COC(=O)N[C@H](C(=O)Nc1cncc(F)c1CC[C@@H]1CN[C@H](COC(=O)NCC(F)(F)F)CO1)[C@@H](c1ccc(F)cc1)c1cccc(F)c1` [Example 281, (βS)-3-fluoro-β-(4-fluorophenyl)-N-(5-fluoro-4-{2-[(2R, 5S)-5-({[(2,2,2-trifluoroethyl)carbamoyl]oxy}methyl)morpholin-2-yl]ethyl}pyridin-3-yl)-Nα-(methoxycarbonyl)-L-phenylalaninamide]: on wildtype HIV-1 protease, the IC50 worked out at 0.9 nM. For the same compound, in the assay with HIV-1 (H9IIIB strain), the concentration for a half-maximal effect (EC50) came to 14 nM.
As to `COC(=O)N[C@H](C(=O)Nc1cncc(F)c1CC[C@@H]1CN[C@H](COC(=O)NCC(F)(F)F)CO1)[C@H](c1ccc(F)cc1)c1cccc(F)c1` [Example 282, (βR)-4-fluoro-β-(3-fluorophenyl)-N-(5-fluoro-4-{2-[(2R,5S)-5-({[(2,2,2-trifluoroethyl)carbamoyl]oxy}methyl)morpholin-2-yl]ethyl}pyridin-3-yl)-Nα-(methoxycarbonyl)-L-phenylalaninamide], the IC50 on wildtype HIV-1 protease came out at 3.7 nM. The compound also yielded an EC50 with HIV-1 (H9IIIB strain) of 25 nM.
For `COC(=O)N[C@H](C(=O)Nc1cncc(F)c1CC[C@@H]1CN[C@H](COC(=O)NCC(F)(F)F)CO1)[C@H](c1ccc(F)cc1)c1ccc(OC(F)(F)F)cc1` [Example 283] the same measures were 14 nM and 69 nM.
For `COC(=O)N[C@H](C(=O)Nc1cccc(F)c1CC[C@@H]1CN[C@H](COC(N)=O)CO1)C(c1ccc(F)cc1)c1ccc(F)cc1` [Example 284, N-[2-(2-{(2R,5S)-5-[(carbamoyloxy)methyl]morpholin-2-yl}ethyl)-3-fluorophenyl]-4-fluoro-β-(4-fluorophenyl)-Nα-(methoxy-carbonyl)-L-phenylalaninamide] the same measures were 12 nM and 19 nM.
Regarding `COC(=O)N[C@H](C(=O)Nc1cccc(F)c1CC[C@@H]1CN[C@H](COC(=O)NCC(F)(F)F)CO1)C(c1ccc(F)cc1)c1ccc(F)cc1` [Example 285], at wildtype HIV-1 protease, the IC50 turned out to be 13 nM. Further, in the assay with HIV-1 (H9IIIB strain), the EC50 turned out to be 21 nM.
The corresponding values for `COC(=O)N[C@H](C(=O)Nc1cncc(F)c1CC[C@@H]1CN[C@H](COC(=O)NCC(F)(F)F)CO1)[C@H](c1ccc(F)cc1)c1ccc(C(F)(F)F)cc1` [Example 286] are 4.6 nM and 37 nM.
In the case of `COC(=O)N[C@H](C(=O)Nc1cccc(F)c1CC[C@@H]1CN[C@H](COC(=O)NCC(F)(F)F)CO1)[C@@H](c1ccc(F)cc1)c1cccc(F)c1` [Example 287], on wildtype HIV-1 protease, the IC50 was 6 nM. In the assay with HIV-1 (H9IIIB strain), this compound yielded an EC50 of 17 nM.
`COC(=O)N[C@H](C(=O)Nc1cncc(F)c1CC[C@@H]1CN[C@H](COC(=O)NCC(F)(F)F)CO1)[C@@H](c1ccc(F)cc1)c1ccc(F)c(F)c1` [Example 288]: the IC50 at wildtype HIV-1 protease turned out to be 3.2 nM. Also, in the assay on HIV-1 (H9IIIB strain), the half-maximal effective concentration (EC50) was 16 nM.
The corresponding values for `COC(=O)N[C@H](C(=O)Nc1cccc(F)c1CC[C@@H]1CN[C@H](COC(=O)NCC(F)(F)F)CO1)[C@H](c1ccc(F)cc1)c1ccc2ccccc2c1` [Example 289] are 16 nM and 310 nM.
The corresponding values for `COC(=O)N[C@H](C(=O)Nc1cccc(F)c1CC[C@@H]1CN[C@H](COC(=O)NCC(F)(F)F)CO1)[C@H](c1ccccc1)c1ccc2ccccc2c1` [Example 290, (βR)-N-(3-fluoro-2-{2-[(2R,5S)-5-({[(2,2,2-trifluoroethyl)carbamoyl]oxy}methyl)morpholin-2-yl]ethyl}phenyl)-Nα-(methoxycarbonyl)-β-naphthalen-2-yl-L-phenylalaninamide] are 30 nM and 600 nM.
For `COC(=O)N[C@H](C(=O)Nc1cncc(F)c1CC[C@@H]1CN[C@H](COC(=O)NCC(F)(F)F)CO1)[C@H](c1ccccc1)c1ccc(OC(F)(F)F)cc1` [Example 291, (βR)-N-(5-fluoro-4-{2-[(2R,5S)-5-({[(2,2,2-trifluoroethyl)carbamoyl]oxy}methyl)morpholin-2-yl]ethyl}pyridin-3-yl)-Nα-(methoxycarbonyl)-β-phenyl-O-(trifluoromethyl)-L-tyrosinamide] the same measures were 28 nM and 110 nM.
As for `COC(=O)N[C@H](C(=O)Nc1cccc(F)c1CC[C@@H]1CN[C@H](COC(=O)NCC(F)(F)F)CO1)[C@@H](c1ccc(F)cc1)c1cc(F)cc(F)c1` [Example 292, (βS)-3,5-difluoro-β-(4-fluorophenyl)-N-(3-fluoro-2-{2-[(2R,5S)-5-({[(2,2,2-trifluoroethyl)carbamoyl]oxy}methyl)morpholin-2-yl]ethyl}phenyl)-Nα-(methoxy-carbonyl)-L-phenylalaninamide], the IC50 at wildtype HIV-1 protease turned out to be 3.6 nM. This compound yielded an EC50 in the assay with HIV-1 (H9IIIB strain) of 16 nM.
For `CCC[C@H](c1ccccc1)[C@H](NC(=O)OC)C(=O)Nc1cccc(F)c1CC[C@@H]1CN[C@H](COC(=O)NCC(F)(F)F)CO1` [Example 293, (βR)-N-(3-fluoro-2-{2-[(2R,5S)-5-({[(2,2,2-trifluoroethyl)carbamoyl]oxy}methyl)morpholin-2-yl]ethyl}phenyl)-Nα-(methoxycarbonyl)-β-propyl-L-phenylalaninamide] the same measures were 100 nM and 80 nM.
